Source: patent US5607926A, “Cephalosporin antibiotics” (Microcide Pharmaceuticals, Inc., priority 1995, dated 1997)
Values after ≈ are worked out from the molar mass of the structure shown. Structures can show the parent of a compound that is named as a salt. Where two headings read alike, the source gives them in different places.

Experiments:
E. coli ATCC 25922 = experiment: In vitro antibacterial evaluation, MIC by agar dilution, E. coli ATCC 25922; assay type: cell-based; conditions: Escherichia coli, ATCC25922, read-out: MIC
In short: (§1)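 Two-fold dilutions of test compound, 128 μg/mL down to ≤0.25 μg/mL, were set in Mueller-Hinton agar in duplicate and spot-inoculated with about 10^4 cfu of log-phase culture. Plates were incubated 16-20 hours at 35°-36° C, and MIC taken as the lowest concentration inhibiting growth, following NCCLS agar dilution.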

[1] = system: S. aureus Col8A (Meth^S)(lac^-); experiment: In vitro antibacterial evaluation, MIC by agar dilution, S. aureus Col8A; assay type: cell-based; conditions: Staphylococcus aureus
In short: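 Agar dilution per NCCLS (1991): two-fold dilutions from 128 μg/mL down to ≤0.25 μg/mL in Mueller-Hinton agar, each level in duplicate. Spots of about 10^4 cfu of log-phase culture; 16-20 h at 35°-36° C. MIC in μg/ml is the lowest concentration inhibiting growth.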

E. faecium ATCC 35667 = experiment: In vitro antibacterial evaluation, MIC by agar dilution, E. faecium ATCC 35667; assay type: cell-based; conditions: Enterococcus faecium, ATCC35667, read-out: MIC
In short: as §1

S. haemolyticus (Meth^R) = experiment: In vitro antibacterial evaluation, MIC by agar dilution, S. haemolyticus; assay type: cell-based; conditions: Staphylococcus haemolyticus, read-out: MIC
In short: as §1

[2] = system: methicillinsusceptible S. aureus strain ATCC 13709; experiment: Challenge strain MIC; assay type: cell-based; conditions: Staphylococcus aureus
Experimental: The compounds of the invention were evaluated against several β-lactamresistant bacteria strains by determining the minimum inhibitory concentration (MIC, μg/ml) of each compound with respect to each strain. The MIC, the lowest concentration of antibiotic which inhibits growth of the test organism, was determined by the agar dilution method.
To determine the MIC for bacterial isolates, the test compound was incorporated in a series of two-fold dilutions into liquified Mueller-Hinton agar. Upon solidification, a number of different bacterial strains were spot inoculated with a replicating device onto the agar surface. […] The procedures used in these studies have been standardized by the National Committee for Clinical Laboratory Standards (NCCLS), as per the NCCLS publication entitled METHODS FOR DILUTION ANTIMICROBIAL SUSCEPTIBILITY TESTS (1991), which is incorporated herein by reference.
Aliquots of antimicrobial agents were prepared in phosphate buffered saline (PBS) at pH 7.2. Tween 20 or DMSO was used as a solubilizing vehicle as needed. Standard methods of vortexing, sonicating and gentle heat were used to facilitate solubilizing the test agent. Typically, the concentration of the stock solution was 10× that of the highest drug concentration tested. A 1.28 mg/mL stock solution was used with a subsequent highest working concentration of 128 μg/mL. Serial two-fold dilutions were done through ≤0.25 μg/mL. Each drug level was tested in duplicate. Two-fold drug dilutions were done in sterile 50 mL tubes with a final drug volume of 5 mL. Upon the addition of 45 mL of molten agar, a 10-fold dilution resulted. Two, 25 mL. plates were then poured into 15×150 mm square Petri plates with grids and allowed to harden.
A control plate with a reference drug, either cefotaxime, vancomycin or imipenem, was used as the positive growth control. Stock concentrations of reference antibiotics were prepared and frozen at -80° C. Upon preparation, the control plates were sealed and stored in the refrigerator for up to 1 week prior to use; however, imipenem control plates had to be prepared just prior to use. All test plates were used within 24 hours of preparation.
Satisfactory results were obtained where the inoculum contained about 10^4 colony forming units (cfu) ±0.5 logs. Starting with pure cultures of the test isolates on agar plates, a few isolated colonies were transferred to a tube of nutrient broth and allowed to grow 4-6 hours at 35°-36° C. to reach log-phase growth. Dropwise addition of the broth culture to PBS was done to match a 0.5 McFarland turbidity standard equal to 10^8 cfu/mL. This was further diluted ten-fold in PBS to reach a working inoculum concentration of 10^7 cfu/mL. When 1 μL of the working inoculum was applied to the agar surface a concentration of about 10^4 cfu per spot was obtained.
Disposable sterile 1 μL loops were used to inoculate test plates, with each isolate in a designated grid on the agar plate. An alternate method of inoculation involved the use of a replica plater, a device with 48 steel pins allowing the simultaneous inoculation of multiple isolates. After the spots had dried, the plates were incubated at 35°-36° C. for 16-20 hours. Endpoints were assessed as the minimum inhibitory concentration (MIC) of antimicrobial agent.
(§2) data reported for challenge with methicillinsusceptible S. aureus strain

S. aureus ATCC 29213 = experiment: In vitro antibacterial evaluation, MIC by agar dilution, S. aureus ATCC 29213; assay type: cell-based; conditions: Staphylococcus aureus, ATCC29213
In short: as §1

[3] = system: methicillinsusceptible S. aureus strain ATCC 13709; experiment: In vivo antibacterial evaluation, murine model for lethal bacteremic peritonitis; design: species or system S. aureus in female Swiss-Webster mice; conditions: Staphylococcus aureus, ATCC13709, sc, 72 h, two equal SC doses at challenge and 2 hours later, mice, probit
Experimental: Groups of 5 female Swiss-Webster mice (Simonsen, Gilroy, Calif.) each are challenged by the intraperitoneal (IP) route with ten-fold increments of a bacterial inoculum. This permits calculation of the mean lethal dose (LD50) and the LD100. For preliminary evaluation of a new antibiotic, mice are challenged IP with an LD100 titer of bacteria. In two equal doses administered at the time of bacterial challenge and 2 hours later, groups of 10 mice each are treated subcutaneously with two-fold increments of the test drug and an antibiotic of known efficacy in mice and humans (i.e., positive control). Mice are observed for 72 h. Those alive at 72 h are considered long term survivors. The total drug dose in mg/kg that protects 50% of mice in a group from death is termed the mean protective dose (PD50). PD50 s are similarly determined for several pathogens. The quantitative endpoints for the new drug are then compared with those obtained with reference antibiotics.
Six ten-fold dilutions of inoculum suspended in 0.5 mL of sterilized 7% hog gastric mucin (Sigma) are injected IP in groups of 5 mice each. A control group of 5 mice receive mucin alone. Mice are observed for 72 h. Those alive at 72 h are considered long term survivors. The mean lethal dose (LD50) and 100% lethal dose (LD100) are determined by the probit test.
For antibiotic efficacy studies, mice are challenged IP with bacterial titers that will afford an LD100 for the test strain. In two equal doses administered at the time of bacterial challenge and 2 hours later, groups of 10 mice each are treated by the subcutaneous route (SC) with twofold increments of the test antibiotic; another group is treated similarly with a reference antibiotic of known efficacy in animals and man. Drug doses can range from 0.01 to 512 mg/kg. If the drug is poorly soluble, Tween 20 or propylene glycol will be employed to solubilize the drug. Animals are observed for 72 h. The 50% protective dose (PD50) is calculated in mg/kg by the probit method. The PD50 is the same as the 50% effective dose (ED50) and the 50% curative dose (CD50). Samples of blood from the hearts of all animals that die and from half the mice that survive are cultured on brain-heart infusion agar. Animals that received a protective dosage of the test drug will be alive at 72 h, although they may appear moderately ill to very ill during the observation period. […] Most of these mice will die within 6 to 48 h. Those alive at 72 h will be considered long term survivors.
as §2

E. faecalis ATCC 29212 = experiment: In vitro antibacterial evaluation, MIC by agar dilution, E. faecalis ATCC 29212; assay type: cell-based; conditions: Enterococcus faecalis, ATCC29212; E. faecalis ATCC 29212; read-out: MIC
In short: as §1

[4] = system: S. aureus 76 (Meth^R)(lac^+); experiment: In vitro antibacterial evaluation, MIC by agar dilution, S. aureus 76; assay type: cell-based; conditions: Staphylococcus aureus, read-out: MIC
In short: as §1

P. aeruginosa ATCC 27853 = experiment: In vitro antibacterial evaluation, MIC by agar dilution, P. aeruginosa ATCC 27853; assay type: cell-based; conditions: Pseudomonas aeruginosa, ATCC27853, read-out: MIC
In short: as §1

[5] = ATCC13709, S. aureus ATCC 13709, read-out: Challenge str MIC
[6] = S. aureus ATCC 29213, read-out: MIC
[7] = ATCC13709, read-out: Challenge str MIC

| SMILES | MIC (E. coli ATCC 25922) [µg/mL] | MIC [1] [µg/mL] | MIC (E. faecium ATCC 35667) [µg/mL] | MIC (S. haemolyticus (Meth^R)) [µg/mL] | MIC [2, 5] [µg/mL] | MIC (S. aureus ATCC 29213; [6]) [µg/mL] | ED50 ([3]; read-out: ED50) [mg/kg] | MIC (E. faecalis ATCC 29212) [µg/mL] | MIC [4] [µg/mL] | MIC (P. aeruginosa ATCC 27853) [µg/mL] | MIC (S. aureus ATCC 29213) [µg/mL] | MIC [2, 7] [µg/mL] | ED50 [3] [mg/kg] |
| --- | --- | --- | --- | --- | --- | --- | --- | --- | --- | --- | --- | --- | --- |
| N=C(N)SCc1ccc(CC(=O)N[C@@H]2C(=O)N3C(C(=O)O)=C(Sc4ccccc4CSC(=N)N)CS[C@H]23)cc1 [Cmpd 97, (7R)-7-[((4-isothiouroniummethylphenyl)acetyl)amino]-3-(2-isothiouroniummethylphenylthio)-3-cephem-4-carboxylate, trifluoroacetic acid salt] | > 32 | 0.125 | 1 | 8 | 0.062 | 0.06 | 0.74 | 0.5 | 4 | > 32 |  |  |  |
| N=C(N)SCc1ccccc1SC1=C(C(=O)O)N2C(=O)[C@@H](NC(=O)Cc3ccccc3CN)[C@H]2SC1 [Cmpd 101, (7R)-7-[((2-Aminomethylphenyl)acetyl)amino]-3-(2-isothiouroniummethylphenylthio)-3-cephem-4-carboxylate, trifluoroacetic acid salt] | > 32 | 0.25 | 2 | 16 | 0.125 |  | 0.65 | 1 | 8 | > 32 | 0.25 |  |  |
| N#Cc1ncccc1SC1=C(C(=O)O)N2C(=O)[C@@H](NC(=O)Cc3ccccc3)[C@H]2SC1 [Cmpd 102, (7R)-7-[(Phenylacetyl)amino]-3-(2-cyanopyridin-3-ylthio)-3-cephem-4-carboxylic acid] | 32 (≈ 70.7 µM) | 0.125 (≈ 0.276 µM) | 4 (≈ 8.84 µM) | 32 (≈ 70.7 µM) |  |  | 1.75 | 2 (≈ 4.42 µM) | 16 (≈ 35.4 µM) | > 32 | 0.125 (≈ 0.276 µM) | 0.125 (≈ 0.276 µM) |  |
| CC(C)N=C(NC(C)C)SCC(=O)N[C@@H]1C(=O)N2C(C(=O)O)=C(Sc3ccccc3CSC(=N)N)CS[C@H]12 [Cmpd 125, (7R)-7-[((N,N'-diisopropylisothiouronium)acetyl)amino]-3-(2-isothiouroniummethylphenylthio)-3-cephem-4-carboxylate, trifluoroacetic acid salt] | > 32 | 0.5 | 2 | 8 |  | 0.5 | > 10 | 0.25 | 8 | > 32 |  |  |  |
| CSCC(=O)N[C@@H]1C(=O)N2C(C(=O)O)=C(Sc3ccccc3CSC(=N)N)CS[C@H]12 [Cmpd 127, (7R)-7-[(methylthioacetyl)amino]-3-(2-isothiouroniummethylphenylthio)-3-cephem-4-carboxylate, inner salt] | > 32 | ≤ 0.06 | 1 |  |  | ≤ 0.06 | 0.59 | 1 | 8 | > 32 |  |  |  |
| O=C(CS/C=C\Cl)N[C@@H]1C(=O)N2C(C(=O)O)=C(Sc3ccnn3-c3ccccc3)CS[C@H]12 [Cmpd 131, (7R)-7-[((Z-2-Chlorovinyl)thioacetyl)amino]-3-(1-N-phenylpyrazol-5-ylthio)-3-cephem-4-carboxylic acid] | > 32 |  | 1 (≈ 1.96 µM) | 32 (≈ 62.9 µM) | 0.06 (≈ 0.118 µM) |  | 1.73 | 0.5 (≈ 0.982 µM) | 4 (≈ 7.86 µM) | > 32 |  |  |  |
| N=C(N)NCCSCC(=O)N[C@@H]1C(=O)N2C(C(=O)O)=C(Sc3ccccc3CSC(=N)N)CS[C@H]12 [Cmpd 137, (7R)-7-[((2-guanidinoethylthio)acetyl)amino]-3-(2-isothiouroniummethylphenylthio)-3-cephem-4-carboxylate, trifluoroacetic acid salt] | 4 | 0.06 | 0.25 | 16 | 0.06 |  | 0.75 | 0.5 | 4 | > 32 |  |  |  |
| CN[C@H](CC(C)C)C(=O)N[C@H]1C(=O)N[C@@H](CC(N)=O)C(=O)N[C@H]2C(=O)N[C@H]3C(=O)N[C@H](C(=O)N[C@H](C(=O)O)c4cc(O)cc(O)c4-c4cc3ccc4O)[C@H](O)c3ccc(c(Cl)c3)Oc3cc2cc(c3O[C@@H]2O[C@H](CO)[C@@H](O)[C@H](O)[C@H]2O[C@H]2C[C@](C)(N)[C@H](O)[C@H](C)O2)Oc2ccc(cc2Cl)[C@H]1O [Vancomycin, reference compound] |  |  |  |  |  |  |  |  |  |  |  | 1 (≈ 0.69 µM) | 2.81 |
